One series deals with BSEP. On the set-up: method as in Funk et al., 2001. The following applies: ref Funk et al., 2001; read-out: IC50 of BSEP inhibition; cited from earlier work.
Another series deals with HepG2. The note with it: cited from earlier work.
The test system of a further series is hiPS-Hep cells. Put plainly: Viability (cellular ATP, CellTiter-Glo) of hiPS-Hep cells after single or repeated exposure. It counts as cell-based. The following applies: Homo sapiens; for EC50: read-out: EC50 (viability); for IC50: read-out: 14-day IC50.
The next series concerns HepaRG. The following applies: cited from earlier work.
The subject of a further series is HepaRG cells. The experiment in a line: cells. It counts as cell-based. The note with it: Homo sapiens; for EC50: read-out: EC50 (viability).
For series [1] the following is noted: cited from earlier work; for Cmax: human.
The test system of the next series is PHH spheroids. The experiment in a line: Viability (cellular ATP, CellTiter-Glo) of 3D PHH spheroids after single or repeated exposure. The note with it: for EC50: read-out: EC50 (viability). Type of series: cell-based, human.
The subject of the next series is HLC. On the set-up: method as in Takayama et al. (2013), Tasnim et al. (2016). The following applies: read-out: Sensitivity, HLC Acute, cited from earlier work.
The conditions of series [2]: 4 g APAP daily for 14 days; ref Watkins et al., 2006; cited from earlier work.
The next series relates to Rat Hepatocytes. On the set-up: method as in Schutte et al. (2011). The note with it: published model, acute; ref Schutte et al. (2011); read-out: Sensitivity, Rat Hepatocytes Acute; cited from earlier work.
Another series has as its system C3A. On the set-up: method as in Fey and Wrzesinski (2012). The following applies: published spheroid model, acute; ref Fey and Wrzesinski (2012); read-out: Sensitivity, C3A Acute; cited from earlier work.
Where [3] appears, read: published spheroid model, acute, ref Mueller et al. (2014), Ramaiahgari et al. (2014), Takayama et al. (2013), read-out: Sensitivity, HepG2 Acute.
Setting [4] is: 336 h, hiPS-Hep cells, 14 days repeated exposure.
The mark [5] stands for this setting: published spheroid model, acute, ref Gunness et al. (2013), Mueller et al. (2014), read-out: Sensitivity, HepaRG Acute.
[6] abbreviates: 336 h, HepaRG cells, 14 days repeated exposure, read-out: 14-day IC50.
Where [7] appears, read: published spheroid model, repeated dose 6 days, ref Ramaiahgari et al. (2014), read-out: Sensitivity, HepG2 Repeated Dose (6 Days).
Setting [8] is: published spheroid model, acute, ref Takayama et al. (2013), Tasnim et al. (2016).

Counter-ions that a name gives are not always drawn. Like-named read-outs stand apart in the source and are kept apart here. Where only a bound is given, the exact number is not on record here.

For `Cc1c(C)c2c(c(C)c1OS(=O)(=O)O)CCC(C)(COc1ccc(CC3SC(=O)NC3=O)cc1)O2` (stereo not drawn) [troglitazone sulfate], the IC50 in the series on BSEP is 0.4 µM.

For `CN(C)CCCN1c2ccccc2Sc2ccc(Cl)cc21` [Chlorpromazine, chlorpromazine], the IC50 in the series on HepG2 (setting [3]) is 43 µM; in the series with hiPS-Hep cells (setting [4]), 24.6 µM; in the series on HepaRG (setting [5]), 98 µM; in the series on HepaRG (published spheroid model, repeated dose 72 h, ref Mueller et al. (2014), read-out: Sensitivity, HepaRG Repeated Dose (72 h)), 43 µM; with HepaRG cells (setting [6]), 34.1 µM. For the same compound, the EC50 in the series with hiPS-Hep cells (48 h) worked out at 38.6 µM; with hiPS-Hep cells (168 h), 23.7 µM; in the series with hiPS-Hep cells (336 h) it was 24.4 µM; in the series with HepaRG cells (HepaRG, 48 h), 67 µM; in the series on HepaRG cells (HepaRG, 168 h), 32.4 µM; with HepaRG cells (HepaRG, 336 h), 34.1 µM. In addition, the EC50 was determined as 16.6 µM with PHH spheroids (Homo sapiens, 48 h); 8.8 µM in the series on PHH spheroids (Homo sapiens, 168 h); 4.6 µM in the series with PHH spheroids (Homo sapiens, 336 h). The Cmax in [1] (read-out: human toxic Cmax, toxic exposure, ref Regenthal et al., 1999) was 1600 nM.

`CCOC(=O)CN[C@@H](C(=O)N1CC[C@H]1C(=O)NCc1ccc(/C(N)=N\O)cc1)C1CCCCC1` [Ximelagatran, ximelagatran]: the EC50 was > 400 µM in the series with hiPS-Hep cells (48 h); > 400 µM with hiPS-Hep cells (168 h); > 400 µM in the series with hiPS-Hep cells (336 h); > 400 µM in the series with HepaRG cells (HepaRG, 48 h); > 400 µM with HepaRG cells (HepaRG, 168 h); > 400 µM in the series with HepaRG cells (HepaRG, 336 h). Moreover, the EC50 in the series on PHH spheroids (Homo sapiens, 48 h) is > 400 µM; with PHH spheroids (Homo sapiens, 168 h) it was 379 µM; in the series on PHH spheroids (Homo sapiens, 336 h) it was 165 µM.

In the case of aflatoxin B1, the IC50 was > 200 µM with HepG2 (read-out: Sensitivity, HepG2 Acute); 1.6 µM with HepaRG (read-out: Sensitivity, HepaRG Acute); 0.4 µM with PHH spheroids (read-out: Sensitivity, PHH Acute); 0.03 µM with PHH spheroids (read-out: Sensitivity, PHH Repeated Dose (14 Days)); 7 µM with HLC. For the same compound, in [1] (in vivo), the “exposure levels detected in exposed individuals” value is listed as 28.5 nM. The Cmax in series [1] (read-out: Cmax or exposure value (toxic), in vivo) is 30 nM.

On to `Cc1c(C)c2c(c(C)c1O)CCC(C)(COc1ccc(CC3SC(=O)NC3=O)cc1)O2` (stereo not drawn) [Troglitazone, troglitazone], for which the IC50 was 80 to 150 µM with HepG2 (setting [3]); 100 µM in the series on HepG2 (setting [7]); 18.7 µM in the series on hiPS-Hep cells (336 h); 400 µM with HepaRG (setting [5]); 34.6 µM with HepaRG cells (HepaRG, 336 h, read-out: 14-day IC50); 37.4 µM with PHH spheroids (Homo sapiens, read-out: Sensitivity, PHH Acute). Further, the IC50 in the series with HLC (setting [8]) is 50 µM. Besides, the EC50 was 46 µM in the series on hiPS-Hep cells (48 h); 33.9 µM with hiPS-Hep cells (168 h); 18.7 µM with hiPS-Hep cells (336 h); > 100 µM with HepaRG cells (HepaRG, 48 h); 36.5 µM in the series on HepaRG cells (HepaRG, 168 h); 34.6 µM with HepaRG cells (HepaRG, 336 h). The EC50 with PHH spheroids (Homo sapiens, 48 h) came out at 37.4 µM; with PHH spheroids (Homo sapiens, 168 h) it was 4.2 µM; in the series on PHH spheroids (Homo sapiens, 336 h) it was 1.5 µM. Besides, the Cmax in series [1] (read-out: therapeutic Cmax, ref Loi et al., 1999) was 2820 nM.

Take `CC(=O)Nc1ccc(O)cc1` [APAP, acetaminophen]: the IC50 was 24000 µM in the series with HepG2 (setting [3]); 9400 µM in the series on HepG2 (setting [7]); 9440 µM with hiPS-Hep cells (setting [4]); 3000 µM in the series with HepaRG (setting [5]); 1310 µM with HepaRG cells (setting [6]); 5920 µM in the series on HepaRG cells (read-out: 48-hour IC50, HepaRG cells, acute, 48 hours). The IC50 in the series with Rat Hepatocytes is 40000 µM; in the series with PHH spheroids (Homo sapiens, 336 h, PHH spheroids, 14 days repeated exposure, read-out: 14-day IC50), 644 µM; in the series on HLC (setting [8]), 30000 µM; with C3A, 40000 µM. Further, the “healthy volunteers with serum alanine aminotransferase elevations above three times the upper limit” value in series [2] was 31%–44%. Also, the EC50 with hiPS-Hep cells (48 h) was > 10000 µM; with hiPS-Hep cells (168 h) it was > 10000 µM; in the series on hiPS-Hep cells (336 h) it was 9440 µM; with HepaRG cells (HepaRG, 48 h) it was 5920 µM; with HepaRG cells (HepaRG, 168 h), 1590 µM; with HepaRG cells (HepaRG, 336 h) it was 1310 µM. Further, the EC50 is > 10000 µM in the series with PHH spheroids (Homo sapiens, 48 h); 2700 µM in the series with PHH spheroids (Homo sapiens, 168 h); 644 µM in the series on PHH spheroids (Homo sapiens, 336 h). Also, in series [1] (healthy volunteers, 4 g APAP daily for 14 days, ref Watkins et al., 2006), the “peak APAP serum level average” value is given as 99.2 µM. Besides, the “APAP plasma concentration for which immediate treatment is stipulated” value in series [1] (patients after acute overdose, depending on additional risk factors, ref Vale and Proudfoot, 1995) is 0.7 to 1.3 mM. Also, in [1] (read-out: Cmax or exposure value (toxic), toxic exposure, ref Vale and Proudfoot, 1995), the Cmax is 700000 nM.

Values taken from PMC5363699, “Transcriptional, Functional, and Mechanistic Comparisons of Stem Cell–Derived Hepatocytes, HepaRG Cells, and Three-Dimensional Human Hepatocyte Spheroids as Predictive In Vitro Systems for Drug-Induced Liver Injury” (Drug Metabolism and Disposition, 2017).
